target: T1, MRGPRX2 (Homo sapiens, UniProt Q96LB1); test: MRGPRX2 β-Arrestin recruitment assay (PathHunter CHO-K1); assay type: cell-based; design: host or cells: PathHunter CHO-K1; settings: PathHunter CHO-K1 cells, agonist Cortistatin 14 0.25 μM
T1 sequence (Q96LB1 1-330): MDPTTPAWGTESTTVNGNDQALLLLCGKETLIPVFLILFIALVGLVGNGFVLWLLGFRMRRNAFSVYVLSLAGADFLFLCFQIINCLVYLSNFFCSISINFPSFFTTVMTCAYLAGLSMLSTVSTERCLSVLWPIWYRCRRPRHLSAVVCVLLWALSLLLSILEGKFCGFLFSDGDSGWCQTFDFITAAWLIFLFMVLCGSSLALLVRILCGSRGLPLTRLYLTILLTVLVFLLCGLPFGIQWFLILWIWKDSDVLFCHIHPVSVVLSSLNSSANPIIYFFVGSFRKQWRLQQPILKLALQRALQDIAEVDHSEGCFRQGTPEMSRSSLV
Excerpt: Example C: MRGPRX2 β-Arrestin Assay
This assay measures compound inhibition of β-Arrestin recruitment, which is part of the G protein-independent pathway that results from the ligand-activated GPCR phosphorylation by specific GPCR kinases. The PathHunter CHO-K1 MRPGRX2 B-Arrestin Cell line stably expressing ProLink tagged MRGPRX2 and Enzyme Acceptor Tagged B-Arrestin was purchased from Eurofins DiscoverX, (Fremont, CA).
The cells were maintained in culture medium from the Europhins DiscoverX Cell Culture Kit-107 which includes FBS, hygromycin B and G418. For the assay, the cells were harvested and were resuspended with Cell Plating Reagent 2 (Eurofins DiscoverX). Cells were added 10000 cells in 25 μL/well to a 384-well black cell culture plate (Greiner VWR, Radnor, PA) which contained 125 nL/well of compound at a selected serially diluted concentration range or DMSO. The plate was incubated at 37° C. with 5% CO2 for 1 h. 2 μL/well of agonist Cortistatin 14 was diluted in Protein Dilution Buffer, (Eurofins DiscoverX) for a final concentration of 0.25 μM, was added and the plate was incubated at 37° C. with 5% CO2 for 90 min. 14 μL/well of Detection Reagent Mix (PathHunter Detection Kit, Eurofins DiscoverX) was added to the plates and further incubated for 1 h in the dark. Plates were read on the PHERAstar microplate reader (BMG Labtech Cary, NC) measuring luminescence 0.1 to 1 s per well. Data was normalized using DMSO only wells and wells with high concentration of reference antagonist as controls. Compound IC50 curves were globally fitted with 3- or 4-parameter Hill equation in a Genedata Screener (Genedata Basel, Switzerland).

| Structure (SMILES) | IC50 [µM] |
| --- | --- |
| Cn1nc(N2CC(C(C)(CNc3cc(C(F)(F)F)nc4cc(C(F)(F)F)nn34)c3ccc(F)cc3)C2)ccc1=O (racemic) [Example 12, 6-(3-(1-((2,5-Bis(trifluoromethyl)pyrazolo[1,5-a]pyrimidin-7-yl)amino)-2-(4-fluorophenyl)propan-2-yl)azetidin-1-yl)-2-methylpyridazin-3(2H)-one] | 0.0001 to 0.1 |
| NC(=O)N1CCC(C(CNc2cc(C(F)(F)F)nc3cc(C(F)(F)F)nn23)c2ccc(F)cc2)CC1 (racemic) [Example 15, 4-(2-((2,5-Bis(trifluoromethyl)pyrazolo[1,5-a]pyrimidin-7-yl)amino)-1-(4-fluorophenyl)ethyl)piperidine-1-carboxamide] | 0.0001 to 0.1 |
| NC(=O)N1CC(C(CO)(CNc2cc(C(F)(F)F)nc3cc(C(F)(F)F)nn23)c2ccc(F)cc2)C1 (racemic) [Example 21, 3-(1-((2,5-Bis(trifluoromethyl)pyrazolo[1,5-a]pyrimidin-7-yl)amino)-2-(4-fluorophenyl)-3-hydroxypropan-2-yl)azetidine-1-carboxamide] | 0.0001 to 0.1 |
| OC1CCC2(CC1)CN(C(CNc1cc(C(F)(F)F)nc3cc(C(F)(F)F)nn13)c1ccc(F)cc1)C2 (racemic) [Example 23, 2-(2-((2,5-Bis(trifluoromethyl)pyrazolo[1,5-a]pyrimidin-7-yl)amino)-1-(4-fluorophenyl)ethyl)-2-azaspiro[3.5]nonan-7-ol] | 0.0001 to 0.1 |
| Fc1ccc(C(CNc2cc(C(F)(F)F)nc3cc(C(F)(F)F)nn23)N2CC(c3ccccn3)C2)cc1 (racemic) [Example 24, N-(2-(4-Fluorophenyl)-2-(3-(pyridin-2-yl)azetidin-1-yl)ethyl)-2,5-bis(trifluoromethyl)pyrazolo[1,5-a]pyrimidin-7-amine] | 0.0001 to 0.1 |
| Cn1cc(NC2CN(C(CNc3cc(C(F)(F)F)nc4cc(C(F)(F)F)nn34)c3ccc(F)cc3)C2)nn1 (racemic) [Example 27, N-(2-(4-Fluorophenyl)-2-(3-((1-methyl-1H-1,2,3-triazol-4-yl)amino)azetidin-1-yl)ethyl)-2,5-bis(trifluoromethyl)pyrazolo[1,5-a]pyrimidin-7-amine] | 0.0001 to 0.1 |

The next lines start with the values.

| IC50 [µM] | Structure (SMILES) |
| --- | --- |
| 0.0001 to 0.1 | C[C@@]1(O)CCN(C(CNc2cc(C(F)(F)F)nc3cc(C(F)(F)F)nn23)c2ccc(F)cc2)C1 (mixture of isomers) [Example 30, (3R)-1-(2-((2,5-Bis(trifluoromethyl)pyrazolo[1,5-a]pyrimidin-7-yl)amino)-1-(4-fluorophenyl)ethyl)-3-methylpyrrolidin-3-ol] |
| 0.0001 to 0.1 | OC[C@H]1CCN(C(CNc2cc(C(F)(F)F)nc3cc(C(F)(F)F)nn23)c2ccc(F)cc2)C1 (mixture of isomers) [Example 31, ((3S)-1-(2-((2,5-Bis(trifluoromethyl)pyrazolo[1,5-a]pyrimidin-7-yl)amino)-1-(4-fluorophenyl)ethyl)pyrrolidin-3-yl)methanol] |
| 0.0001 to 0.1 | OC1CCC12CN(C(CNc1cc(C(F)(F)F)nc3cc(C(F)(F)F)nn13)c1ccc(F)cc1)C2 (mixture of isomers) [Example 34, 2-(2-((2,5-Bis(trifluoromethyl)pyrazolo[1,5-a]pyrimidin-7-yl)amino)-1-(4-fluorophenyl)ethyl)-2-azaspiro[3.3]heptan-5-ol] |
| 0.0001 to 0.1 | CCC(CNc1cc(C(F)(F)F)nc2cc(C(F)(F)F)nn12)(c1ccc(F)cc1)C1CN(C(N)=O)C1 (racemic) [Example 1, 3-(1-((2,5-Bis(trifluoromethyl)pyrazolo[1,5-a]pyrimidin-7-yl)amino)-2-(4-fluorophenyl)butan-2-yl)azetidine-1-carboxamide] |
| 0.0001 to 0.1 | CC(CNc1cc(C(F)(F)F)nc2cc(C(F)(F)F)nn12)(c1ccc(F)cc1)C1CCN(C(N)=O)CC1 (racemic) [Example 2, 4-(1-((2,5-Bis(trifluoromethyl)pyrazolo[1,5-a]pyrimidin-7-yl)amino)-2-(4-fluorophenyl)propan-2-yl)piperidine-1-carboxamide] |

— patent US20250243208A1, “BICYCLIC HETEROCYCLES AS MRGPRX2 ANTAGONISTS” (Incyte Corporation, priority 2024, published 2025)
